Experimental data published in patent US20240148711A1, “COMPOSITION COMPRISING BETA BLOCKER AND CHOLINESTERASE INHIBITOR FOR TREATMENT OF NEURODEGENERATIVE DISEASE” (DR. NOAH BIOTECH INC., priority 2022, published 2024).

Key:
SOD1G93A transgenic mice = test: Rotarod latency test in ALS animal model; format: in vivo; details: oral once daily from 70 days of age for 70 days, edaravone 15 mg/kg, NDC-011 nebivolol 5 mg/kg+donepezil 3 mg/kg, compared to the normal control group
Method: SOD1G93A transgenic mice as ALS animal models were used to verify the in vivo efficacy of the nebivolol and donepezil complex. Edaravone (15 mg/kg) as a commercially available ALS treatment, or a nebivolol and donepezil complex (NDC-011, nebivolol 5 mg/kg+donepezil 3 mg/kg) according to the present invention was administered to mice from 70 days of age once daily. Each dose was orally administered for 70 days. The rotarod latency test was performed immediately before the start of drug administration to evaluate the motor ability of each animal, and, thereafter, the rotarod latency test was performed during the drug administration period at 7-day intervals to evaluate the motor ability of the ALS animals.

neuroblasts (SH-SY5Y) = test: ROS generation after H2O2 oxidative stress (DCF fluorescence); format: cell-based; details: compared to the control group
[1] = system: Immortalized human neural progenitor cell line (ReNcell VM); test: Differentiation of neural progenitor cells into motor neurons (HB9 immunostaining / CellTag); format: cell-based; details: compared to the control group
Method: Immortalized human neural progenitor cell line (ReNcell VM) as a neural progenitor cell that may differentiate into neurons and glial cells was treated with nebivolol alone, donepezil alone, and nebivolol+donepezil combination. Thereafter, immunostaining was performed using an antibody capable of selectively binding to motor neurons (anti-HB9 antibody) and a CellTag probe that stains whole cells. Thereafter, the HB9 positive signal and the value of CellTag were analyzed to determine the number of motor neurons among the total cells, thereby measuring the degree of differentiation of neural precursor cells into motor neurons.

microglia (BV2 cells) = test: NO generation in LPS-treated microglia (anti-inflammatory effect); format: cell-based; details: BV2 cells treated with LPS and drug at the same time; compared to the LPS control group
Method: Microglia (BV2 cells) were treated with LPS to cause an inflammatory response and, at the same time, treated with nebivolol alone, donepezil alone, or nebivolol+donepezil combination to measure the concentration of generated NO.

[2] = ReNcell VM, low concentration (0.01 μM) of nebivolol or donepezil alone

| SMILES | age from which exercise capacity decreased (rotarod latency) (SOD1G93A transgenic mice) [days] | amount of generated reactive oxygen species (ROS) (neuroblasts (SH-SY5Y)) | HB-9 expression (motor neuron marker) ([1]; ReNcell VM under differentiation conditions) | HB-9 expression (motor neuron marker) [1, 2] | concentration of generated NO (microglia (BV2 cells)) |
| --- | --- | --- | --- | --- | --- |
| CC1=NN(c2ccccc2)C(=O)C1 [edaravone, Edaravone] | 84 |  |  |  |  |
| OC(CNCC(O)C1CCc2cc(F)ccc2O1)C1CCc2cc(F)ccc2O1 (centres unmarked) [nebivolol, Nebivolol] |  | no significant decrease | significant increase in HB-9 expression | not observed | significant reduction in NO |
| COc1cc2c(cc1OC)C(=O)C(CC1CCN(Cc3ccccc3)CC1)C2 (centres unmarked) [donepezil, Donepezil] |  | no significant decrease |  | not observed | significant reduction in NO |
